From patent US9302999B2, “Substituted triazoles as herbicides” (E. I. DU PONT DE NEMOURS AND COMPANY, priority 2012, dated 2016)
Where two headings read alike, the source gives them in different places.

Assays:
Format in all cases: in vivo
[1] = test system: ducksalad (Heteranthera limosa); test: Test C flooded paddy test: ducksalad; settings: scale 0 to 100 (0 no effect, 100 complete control); for pest or weed control at 62 g/ha / pest or weed control at 250 g/ha / pest or weed control at 125 g/ha: Heteranthera limosa, read-out: Plant response rating, Ducksalad
Outline: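 Visual ratings from 0 (no effect) to 100 (complete control), made against untreated controls 13 to 15 days after treatment, express plant response. Compounds went directly into paddy water over 2-leaf stage plants in pots flooded to 3 cm.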

[2] = test system: bromegrass, downy (downy bromegrass, Bromus tectorum); test: Test C pre-/postemergence: bromegrass, downy
Text: (§1) Seeds of plant species selected from blackgrass (Alopecurus myosuroides), bromegrass, downy (downy bromegrass, Bromus tectorum), foxtail, green (green foxtail, Setaria viridis), ryegrass, Italian (Italian ryegrass, Lolium multiflorum), winter wheat (Triticum aestivum), wild oat (Avena fatua), galium (catchweed bedstraw, Galium aparine), bermudagrass (Cynodon dactylon), surinam grass (Brachiaria decumbens), cocklebur (common cocklebur, Xanthium strumarium), corn (Zea mays), large crabgrass (Digitaria sanguinalis), woolly cupgrass (Eriochloa villosa), foxtail, giant (giant foxtail, Setaria faberii), goosegrass (Eleusine indica), johnsongrass (Sorghum halepense), kochia (Kochia scoparia), lambsquarters (Chenopodium album), morningglory (Ipomoea coccinea), nightshade (eastern black nightshade, Solanum ptycanthum), nutsedge, yellow (yellow nutsedge, Cyperus esculentus), pigweed (Amaranthus retroflexus), ragweed (common ragweed, Ambrosia elation), soybean (Glycine max), common (oilseed) sunflower (Helianthus annuus), Russian thistle (Salsola kali) and velvetleaf (Abutilon theophrasti) were planted into a blend of loam soil and sand and treated preemergence with test chemicals formulated in a non-phytotoxic solvent mixture which included a surfactant.
(§2) At the same time, plants selected from these crop and weed species and also barley (winter barley, Hordeum vulgare), canarygrass (Phalaris minor), chickweed (common chickweed, Stellaria media) windgrass (Apera spica-venti) and deadnettle (henbit deadnettle, Lamium amplexicaule) were planted in pots containing Redi-Earth® planting medium (Scotts Company, 14111 Scottslawn Road, Marysville, Ohio 43041) comprising spaghnum peat moss, vermiculite, wetting agent and starter nutrients and treated with postemergence applications of test chemicals formulated in the same manner. Plants ranged in height from 2 to 18 cm (1- to 4-leaf stage) for postemergence treatments.
(§3) Treated plants and controls were maintained in a greenhouse for 13 to 15 days, after which time all species were compared to controls and visually evaluated. Plant response ratings, summarized in Table C, are based on a scale of 0 to 100 where 0 is no effect and 100 is complete control. A dash (-) response means no test result.

[3] = test system: woolly cupgrass (Eriochloa villosa); test: Test C pre-/postemergence: woolly cupgrass
Text: as §1, §2, §3

[4] = Flood (flooded paddy test), 62 g ai/ha, visual rating after 13 to 15 days
[5] = Flood (flooded paddy test), 250 g ai/ha, visual rating after 13 to 15 days
[6] = Postemergence, 31 g ai/ha, scale 0 to 100 (0 no effect, 100 complete control)
[7] = Postemergence, 62 g ai/ha, scale 0 to 100 (0 no effect, 100 complete control)
[8] = Postemergence, 125 g ai/ha, scale 0 to 100, 0 no effect, 100 complete control
[9] = Postemergence, 250 g ai/ha, scale 0 to 100
[10] = Preemergence, 31 g ai/ha, scale of 0 to 100, 0 is no effect, 100 is complete control
[11] = Preemergence, 62 g ai/ha, scale 0 to 100, 0 no effect, 100 complete control
[12] = Preemergence, 125 g ai/ha, scale 0 to 100, 0 no effect, 100 complete control
[13] = Preemergence, 250 g ai/ha, scale 0 to 100, 0 no effect, 100 complete control
[14] = Preemergence, 62 g ai/ha, scale of 0 to 100, 0 is no effect, 100 is complete control
[15] = Postemergence, 16 g ai/ha, scale 0 to 100, 0 no effect, 100 complete control
[16] = Preemergence, 16 g ai/ha, scale 0 (no effect) to 100 (complete control)
[17] = Flood (flooded paddy test), 125 g ai/ha, visual rating after 13 to 15 days

| Compound | pest or weed control at 62 g/ha [1, 4] [%] | pest or weed control at 250 g/ha [1, 5] [%] | Plant response rating, Bromegrass, Downy [2, 6] | Plant response rating, Bromegrass, Downy [2, 7] | Plant response rating, Bromegrass, Downy [2, 8] | Plant response rating, Bromegrass, Downy [2, 9] | Plant response rating, Bromegrass, Downy [2, 10] | Plant response rating, Bromegrass, Downy [2, 11] | Plant response rating, Bromegrass, Downy [2, 12] | Plant response rating, Bromegrass, Downy [2, 13] | Plant response rating, Cupgrass, Woolly [3, 6] | Plant response rating, Cupgrass, Woolly [3, 7] | Plant response rating, Cupgrass, Woolly [3, 8] | Plant response rating, Cupgrass, Woolly [3, 9] | Plant response rating, Cupgrass, Woolly [3, 10] | Plant response rating, Cupgrass, Woolly [3, 14] | Plant response rating, Cupgrass, Woolly [3, 12] | Plant response rating, Cupgrass, Woolly [3, 13] | also measured |
| --- | --- | --- | --- | --- | --- | --- | --- | --- | --- | --- | --- | --- | --- | --- | --- | --- | --- | --- | --- |
| Cc1nn(-c2ccc(C(F)(F)F)cc2)nc1Oc1csc(C(F)(F)F)c1 [Compound 1, 4-methyl-2-[4-(trifluoromethyl)phenyl]-5-[[5-(trifluoromethyl)-3-thienyl]oxy]-2H-1,2,3-triazole] | 0 | 0 | – | – | – | – | – | – | – | – | – | – | – | – | – | – | – | – | – |
| FC(F)(F)COc1nn(-c2ccc(C(F)(F)F)cc2)nc1Cc1ccnc(C(F)(F)F)c1 [Compound 14, 4-[[5-(2,2,2-trifluoroethoxy)-2-[4-(trifluoromethyl)phenyl]-2H-1,2,3-triazol-4-yl]methyl]-2-(trifluoromethyl)pyridine] | 40 | 60 | 30 | 40 | 40 | 45 | 30 | 35 | 60 | 98 | 5 | 5 | 35 | 65 | 5 | 75 | 75 | 80 | – |
| COc1nn(-c2ccc(C(F)(F)F)cc2)nc1Cc1ccnc(C(F)(F)F)c1 [Compound 15, 4-[[5-methoxy-2-[4-(trifluoromethyl)phenyl]-2H-1,2,3-triazol-4-yl]methyl]-2-(trifluoromethyl)pyridine] | 40 | 60 | 25 | 35 | 40 | – | 25 | 30 | 80 | – | 5 | 5 | 75 | – | 45 | 85 | 95 | – | Plant response rating, Bromegrass, Downy [2, 15]: 10; Plant response rating, Bromegrass, Downy [2, 16]: 15; Plant response rating, Cupgrass, Woolly [3, 15]: 5; Plant response rating, Cupgrass, Woolly [3, 16]: 5 |
| Cc1nn(-c2ccc(C(F)(F)F)cn2)nc1Oc1ccnc(C(F)(F)F)c1 [Compound 23] | – | – | 5 | 5 | 5 | 5 | 0 | 0 | 5 | 10 | 10 | 10 | 15 | 50 | 95 | 100 | 100 | 100 | Plant response rating, Ducksalad [1, 4]: 60; Plant response rating, Ducksalad [1, 17]: 60; Plant response rating, Ducksalad [1, 5]: 85; Plant response rating, Ducksalad ([1]; Flood, 31 g ai/ha): 50 |
| Fc1ccc(-n2nc(Cc3ccnc(C(F)(F)F)c3)c(OC(F)F)n2)cc1 [Compound 25] | – | – | 5 | 5 | 5 | 10 | 5 | 5 | 40 | 80 | 25 | 25 | 25 | 45 | 20 | 40 | 65 | 98 | – |
| FC(F)Oc1nn(-c2ccc(C(F)(F)F)cc2)nc1Cc1ccnc(C(F)(F)F)c1 [Compound 26] | – | – | 15 | 30 | 40 | 50 | 5 | 45 | 50 | 85 | 25 | 40 | 45 | 55 | 10 | 65 | 70 | 90 | – |
| FC(F)(F)c1ccc(-n2nc(Cl)c(Cc3ccnc(C(F)(F)F)c3)n2)cc1 [Compound 28] | – | – | 5 | 25 | 35 | 35 | – | – | – | – | 20 | 30 | 35 | 40 | – | – | – | – | – |
| COCc1nn(-c2ccc(C(F)(F)F)cc2)nc1Oc1cccc(OC(F)(F)F)c1 [Compound 115, 4-(methoxymethyl)-5-[3-(trifluoromethoxy)phenoxy]-2-[4-(trifluoromethyl)phenyl]-2H-1,2,3-triazole] | – | 20 | – | – | – | – | – | – | – | – | – | – | – | – | – | – | – | – | pest or weed control at 125 g/ha [1, 17]: 0%; pest or weed control at 62 g/ha ([1]; Flood, 62 g ai/ha): 0% |
| FCc1nn(-c2ccc(C(F)(F)F)cc2)nc1Oc1cccc(OC(F)(F)F)c1 [Compound 116, 4-(fluoromethyl)-5-[3-(trifluoromethoxy)phenoxy]-2-[4-(trifluoromethyl)phenyl]-2H-1,2,3-triazole] | – | 50 | – | – | – | – | – | – | – | – | – | – | – | – | – | – | – | – | pest or weed control at 125 g/ha [1, 17]: 30%; pest or weed control at 62 g/ha ([1]; Flood, 62 g ai/ha): 0% |
| COc1nn(-c2ccc(C(F)(F)F)cc2)nc1Cc1ccnc(C(F)F)c1 [Compound 138] | – | – | 40 | 45 | 50 | 65 | 10 | – | 60 | 80 | 50 | 55 | 55 | 85 | 60 | 90 | 95 | 100 | Plant response rating, Bromegrass, Downy [2, 14]: 30 |
